This passage reports IC50 results from patent US20240398969A1, “ANTIBODY-DRUG CONJUGATES FOR TREATING INFECTIONS OF HUMAN IMMUNODEFICIENCY VIRUS (HIV)” (priority 2023, published 2024).

Holding throughout (type): cell-based
Assay [1] deals with HDAC. Nature of the assay: Cellular HDAC enzymatic assay (FLUOR DE LYS HDAC fluorometric cellular activity assay) in CD4 enriched Jurkat T cells. How it is done:
(§1) Cellular HDAC enzymatic assay was conducted for 3 days with the CD4 enriched Jurkat T lymphocyte cells or B lymphocyte cells treated with various amounts of drugs using FLUOR DE LYS® HDAC fluorometric cellular activity assay kit (Enzo Life Sciences, Inc., cat. No: BML-AK503-0001). The assay was performed following the manufacturer's instructions. […] The Fluor de Lys substrate was added in a culture media. After 30 min 37° C., 1 volume of the developer was added. After 15 min 37° C., the fluorophore was excited with 355 nm light and the emitted light (450 nm) was being detected on a fluorometric plate reader (Clariostar: BMG, Buckinghamshire, UK). For each experiment, controls (containing CD4 enriched Jurkat T lymphocyte cells or Ramos B lymphocyte cells and buffer), a blank incubation (containing buffer but no CD4 enriched Jurkat T lymphocyte cells or Ramos B lymphocyte cells) and samples (containing compound dissolved in DMSO or ADCs dissolved in PBS and further diluted in medium) were run in parallel. In each test the blank value was subtracted from both the control and the sample values. The control sample represented 100% of substrate deacetylation. For each sample the fluorescence was expressed as a percentage of the mean value of the controls.

Assay [2] has as its system HDAC. Nature of the assay: Cellular HDAC enzymatic assay (FLUOR DE LYS HDAC fluorometric cellular activity assay) in Ramos B lymphocyte cells. How it is done:
as §1

Assay [3] deals with Jurkat CD4^+ (human T lymphocyte cells). Nature of the assay: Cytotoxicity assay, CellTiter-Glo Luminescent Cell Viability Assay, Jurkat. Conditions: 72 h, read-out: IC50 value of Luminescent Cell Viability Assay. How it is done: In vitro cytotoxicity assay was conducted for 3 days with the CD4 enriched Jurkat T cells and treated with various amounts of drugs using CellTiter-Glo® Luminescent Cell Viability Assay Kit (Promega, G7571). The assay was performed following the manufacturer's instructions. Briefly, cells were plated in 96-well plates at […] in 100 μl RPMI 1640 medium with 10% heat-inactivated Fetal Bovine Serum. The following day, a serial ten-fold dilution for eight points of drugs (Romidepsin, TMB-355-ADC, and TMB-355) was used. The final concentration in the test was ranging from 1×10^3 nM to 1×10^−4 nM for Romidepsin, from 6.67×10^2 nM to 6.67×10^−5 nM for TMB-355-ADC and TMB-355. The cells were then incubated at 37° C. for 72 h. Subsequently, 100 μL/well of CellTiter-Glo reagent was added and the cells were shaken for 2 minutes and then incubated for an additional 10 minutes at room temperature. After the incubation time, luminescence (light) was measured in a luminometer (Clariostar: BMG, Buckinghamshire, UK). The IC50 corresponds to the drug concentration which achieves 50% activity of untreated control cultures. IC50 values were calculated using the software package Prism 6.0 (GraphPad Software Inc., San Diego, Calif.) with variable slope option.
In general terms: ATP-based viability assays read luminescence as a measure of living cells.

In assay [4] the test system is Ramos(human B lymphocyte). Nature of the assay: Cytotoxicity assay, CellTiter-Glo Luminescent Cell Viability Assay, Ramos. The note with it: 72 h, read-out: IC50 value of Luminescent Cell Viability Assay.

A word on the pIC50: it is the IC50 on a negative log10 scale, so that one unit is a factor of ten.

pIC50: −log10 of the molar value. Read-outs that look alike come from different tables or passages of the source.

In the case of TMB-355, the pIC50 in the assay on HDAC [1] (Jurkat CD4^+ (human T lymphocyte cells), 3 days; read-out: IC50 value of Cellular HDAC enzymatic assay) is under 6.18; with HDAC [2] (Ramos (human B lymphocyte), 3 days; read-out: IC50 value of Cellular HDAC enzymatic assay), under 6.18; in assay [3] (Jurkat CD4^+ (human T lymphocyte cells)), under 6.18; in assay [4] (Ramos (human B lymphocyte)), under 6.18.
For the compound `C/C=C1\NC(=O)[C@H]2CSSCC/C=C/[C@H](CC(=O)N[C@H](C(C)C)C(=O)N2)OC(=O)[C@H](C(C)C)NC1=O` [Romidepsin], the pIC50 in the assay with HDAC [1] (read-out: IC50 value of Cellular HDAC enzymatic assay; Jurkat CD4^+ (human T lymphocyte cells), 3 days) is 8.80; in the assay with HDAC [2] (read-out: IC50 value of Cellular HDAC enzymatic assay; Ramos (human B lymphocyte), 3 days), 8.41; in assay [3] (Homo sapiens, Jurkat) it was 8.80; in assay [4] (Homo sapiens, Ramos), 8.66.
